Consider 24 compounds from patent US10519177B2, “Heterocyclic compounds and uses thereof” (Plexxikon Inc., priority 2013, dated 2019).

The subject of one assay is bromodomain. In words: at least one of the bromodomain cell assays of Example 57. Type of assay: cell-based. The following applies: at least one of the bromodomain cell assays described in Example 57; read-out: IC50 in at least one of the bromodomain cell assays.
A further assay deals with MV-4-11 cells. In words: Oncology cell growth assay MV-4-11 (CellTiter Glo). Type of assay: cell-based. The following applies: Homo sapiens, MV4-11, 72 h; MV-4-11, 3d growth; read-out: Cell activity (IC50 μM) MV-4-11 3d-Growth. The gist of the method:
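MV-4-11 AML cells (MLL-AF4), 3000 per well, exposed to 8-point 1:3 compound titration from 10 μM top concentration (0.2% DMSO) for 72 h. Viability by CellTiter Glo luminescence, normalized to DMSO controls; pIC50 from four-parameter curve fit.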

Another assay concerns the target BRD4-BD12 (1-477) (Homo sapiens (Human), UniProt O60885). In words: Alphascreen binding assay BRD4-BD12. The following applies: BRD4(1 2) H4; read-out: Biochemical activity (IC50 μM) BRD4(1 2) H4. The essentials: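 First, compound was preincubated 1 h at room temperature with the His-tagged BRD4 protein (BD1 44-164 or tandem BD12 1-477) and acetylated H4 peptide. Next, donor and acceptor beads were added at 7.5 μg/ml final. After 30 min, AlphaScreen emission was recorded.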
Background: In Alpha technology, singlet oxygen from a donor bead excites a nearby acceptor bead.

Molecules are shown by their SMILES.

`Cc1noc(C)c1-c1cnc2c(c1)c(CC1CCC(F)(F)CC1)cn2-c1ccc(C(=O)O)cc1F` [P-0442, 4-[3-[(4,4-difluorocyclohexyl)methyl]-5-(3,5-dimethylisoxazol-4-yl)pyrrolo[2,3-b]pyridin-1-yl]-3-fluoro-benzoic acid]: the values for the concentration for half-maximal inhibition (IC50) in the assay with bromodomain, in the assay on MV-4-11 cells and at BRD4-BD12 (1-477) were below 10 µM, below 1 µM and below 1 µM, respectively.

Turning to `Cc1noc(C)c1-c1cnc2c(c1)c(CC1CCC(F)(F)CC1)cn2-c1ncc(C(=O)O)cn1` [P-0443, 2-[3-[(4,4-difluorocyclohexyl)methyl]-5-(3,5-dimethylisoxazol-4-yl)pyrrolo[2,3-b]pyridin-1-yl]pyrimidine-5-carboxylic acid], the IC50 (in general, the midpoint of a concentration-inhibition curve) in the assay with bromodomain is below 10 µM; in the assay with MV-4-11 cells, 1 to 10 µM; on BRD4-BD12 (1-477), below 1 µM.

Turning to `Cc1noc(C)c1-c1cnc2c(I)cn(CC3(F)CCC(F)(F)CC3)c2c1` [P-0448, 4-[3-iodo-1-[(1,4,4-trifluorocyclohexyl)methyl]pyrrolo[3,2-b]pyridin-6-yl]-3,5-dimethyl-isoxazole], the concentration for half-maximal inhibition (IC50) is below 10 µM in the assay on bromodomain, below 1 µM with MV-4-11 cells and below 1 µM at BRD4-BD12 (1-477).

With `Nc1ncc(-c2cnc3c(-c4cnn(CC(F)(F)F)c4)cn(CC4CCC(F)(F)CC4)c3c2)cn1` [P-0451, 5-[1-[(4,4-difluorocyclohexyl)methyl]-3-[1-(2,2,2-trifluoroethyl)pyrazol-4-yl]pyrrolo[3,2-b]pyridin-6-yl]pyrimidin-2-amine], the values for the IC50 with bromodomain, with MV-4-11 cells and at BRD4-BD12 (1-477) were below 10 µM, 10 to 200 µM and 1 to 10 µM, respectively.

For `COc1ncc(-c2cnc3c(-c4cnn(CC(F)(F)F)c4)cn(CC4CCC(F)(F)CC4)c3c2)s1` [P-0452, 5-[1-[(4,4-difluorocyclohexyl)methyl]-3-[1-(2,2,2-trifluoroethyl)pyrazol-4-yl]pyrrolo[3,2-b]pyridin-6-yl]-2-methoxy-thiazole], the values for the IC50 in the assay on bromodomain, in the assay with MV-4-11 cells and at BRD4-BD12 (1-477) were below 10 µM, 1 to 10 µM and below 1 µM, respectively.

For the compound `COC(=O)c1ccc(-c2cn(CC3(F)CCCCC3)c3cc(-c4c(C)noc4C)cnc23)cn1` [P-0453, methyl 5-[6-(3,5-dimethylisoxazol-4-yl)-1-[(1-fluorocyclohexyl)methyl]pyrrolo[3,2-b]pyridin-3-yl]pyridine-2-carboxylate], the IC50 was below 10 µM with bromodomain, below 1 µM with MV-4-11 cells and below 1 µM on BRD4-BD12 (1-477).

Regarding `COC(=O)c1ccc(-c2cn(CC3(F)CCC(F)(F)CC3)c3cc(-c4c(C)noc4C)cnc23)cn1` [P-0454, methyl 5-[6-(3,5-dimethylisoxazol-4-yl)-1-[(1,4,4-trifluorocyclohexyl)methyl]pyrrolo[3,2-b]pyridin-3-yl]pyridine-2-carboxylate], the IC50 with bromodomain was below 10 µM; in the assay with MV-4-11 cells it was below 1 µM; on BRD4-BD12 (1-477), below 1 µM.

`Cc1noc(C)c1-c1cnc2c(-c3ccc(C(=O)O)nc3)cn(CC3(F)CCCCC3)c2c1` [P-0455, 5-[6-(3,5-dimethylisoxazol-4-yl)-1-[(1-fluorocyclohexyl)methyl]pyrrolo[3,2-b]pyridin-3-yl]pyridine-2-carboxlic acid]: the IC50 in the assay on bromodomain was below 10 µM; in the assay with MV-4-11 cells it was below 1 µM; at BRD4-BD12 (1-477) it was below 1 µM.

As for `Cc1noc(C)c1-c1cnc2c(-c3ccc(C(=O)O)nc3)cn(CC3(F)CCC(F)(F)CC3)c2c1` [P-0456, 5-[6-(3,5-dimethylisoxazol-4-yl)-1-[(1,4,4-trifluorocyclohexyl)methyl]pyrrolo[3,2-b]pyridin-3-yl]pyridine-2-carboxylic acid], the IC50 is below 10 µM in the assay on bromodomain, below 1 µM in the assay on MV-4-11 cells and below 1 µM at BRD4-BD12 (1-477).

For `Cc1noc(C)c1-c1cnc2c(-c3ccc(C#N)cc3)cn(CC3(F)CCCCC3)c2c1` [P-0457, 4-[6-(3,5-dimethylisoxazol-4-yl)-1-[(1-fluorocyclohexyl)methyl]pyrrolo[3,2-b]pyridin-3-yl]benzonitrile], the concentration for half-maximal inhibition (IC50) in the assay with bromodomain was below 10 µM; with MV-4-11 cells, below 1 µM; on BRD4-BD12 (1-477), below 1 µM.

`Cc1noc(C)c1-c1cnc2c(-c3ccc(C#N)cc3)cn(CC3(F)CCC(F)(F)CC3)c2c1` [P-0458, 4-[6-(3,5-dimethylisoxazol-4-yl)-1-[(1,4,4-trifluorocyclohexyl)methyl]pyrrolo[3,2-b]pyridin-3-yl]benzonitrile]: the IC50 is below 10 µM in the assay on bromodomain, below 1 µM with MV-4-11 cells and below 1 µM at BRD4-BD12 (1-477).

With `[2H]C([2H])(C1CCC(F)(F)CC1)n1cc(C(=O)O)c2ncc(-c3c(C)noc3C)cc21` [P-0459, 1-[dideuterio-(4,4-difluorocyclohexyl)methyl]-6-(3,5-dimethylisoxazol-4-yl)pyrrolo[3,2-b]pyridine-3-carboxylic acid], the IC50 with bromodomain was below 10 µM; in the assay with MV-4-11 cells, 1 to 10 µM; at BRD4-BD12 (1-477), below 1 µM.

On to `Cc1noc(C)c1-c1cnc2c(-c3ccc(-c4nnn[nH]4)cc3)cn(CC3(F)CCCCC3)c2c1` [P-0460, 4-[1-[(1-fluorocyclohexyl)methyl]-3-[4-(1H-tetrazol-5-yl)phenyl]pyrrolo[3,2-b]pyridin-6-yl]-3,5-dimethyl-isoxazole], for which the IC50 in the assay on bromodomain was below 10 µM; in the assay on MV-4-11 cells it was below 1 µM; at BRD4-BD12 (1-477), below 1 µM.

`Cc1noc(C)c1-c1cnc2c(-c3ccc(-c4nnn[nH]4)cc3)cn(CC3(F)CCC(F)(F)CC3)c2c1` [P-0461, 3,5-dimethyl-4-[3-[4-(1H-tetrazol-5-yl)phenyl]-1-[(1,4,4-trifluorocyclohexyl)methyl]pyrrolo[3,2-b]pyridin-6-yl]isoxazole]: the figures for the IC50 in the assay with bromodomain, in the assay on MV-4-11 cells and on BRD4-BD12 (1-477) were below 10 µM, below 1 µM and below 1 µM, respectively.

As to `Cc1noc(C)c1-c1cnc2c(C#CC(=O)O)cn(CC3CCC(F)(F)CC3)c2c1` [P-0462, 3-[1-[(4,4-difluorocyclohexyl)methyl]-6-(3,5-dimethylisoxazol-4-yl)pyrrolo[3,2-b]pyridin-3-yl]prop-2-ynoic acid], the IC50 is below 10 µM in the assay on bromodomain, 1 to 10 µM in the assay with MV-4-11 cells and below 1 µM on BRD4-BD12 (1-477).

Regarding `Cc1ccc(-c2cn(CC3(F)CCCCC3)c3cc(-c4c(C)noc4C)cnc23)cn1` [P-0463, 4-[1-[(1-fluorocyclohexyl)methyl]-3-(6-methyl-3-pyridyl)pyrrolo[3,2-b]pyridin-6-yl]-3,5-dimethyl-isoxazole], the IC50 with bromodomain was below 10 µM; in the assay with MV-4-11 cells, below 1 µM; on BRD4-BD12 (1-477), below 1 µM.

On to `COc1ncc(-c2cn(CC3(F)CCCCC3)c3cc(-c4c(C)noc4C)cnc23)cn1` [P-0464, 4-[1-[(1-fluorocyclohexyl)methyl]-3-(2-methoxypyrimidin-5-yl)pyrrolo[3,2-b]pyridin-6-yl]-3,5-dimethyl-isoxazole], for which the values for the IC50 in the assay on bromodomain, in the assay with MV-4-11 cells and at BRD4-BD12 (1-477) were below 10 µM, below 1 µM and below 1 µM, respectively.

On to `CNC(=O)c1ccc(-c2cn(CC3(F)CCCCC3)c3cc(-c4c(C)noc4C)cnc23)cc1` [P-0465, 4-[6-(3,5-dimethylisoxazol-4-yl)-1-[(1-fluorocyclohexyl)methyl]pyrrolo[3,2-b]pyridin-3-yl]-N-methyl-benzamide], for which the IC50 with bromodomain was below 10 µM; with MV-4-11 cells it was below 1 µM; on BRD4-BD12 (1-477) it was below 1 µM.

With `Cc1noc(C)c1-c1cnc2c(-c3ccc(C(N)=O)cc3)cn(CC3(F)CCCCC3)c2c1` [P-0466, 4-[6-(3,5-dimethylisoxazol-4-yl)-1-[(1-fluorocyclohexyl)methyl]pyrrolo[3,2-b]pyridin-3-yl]benzamide], the figures for the IC50 in the assay on bromodomain, in the assay with MV-4-11 cells and on BRD4-BD12 (1-477) were below 10 µM, below 1 µM and below 1 µM, respectively.

Regarding `Cc1noc(C)c1-c1cnc2c(-c3ccc(F)c(C(=O)O)c3)cn(CC3(F)CCCCC3)c2c1` [P-0467, 5-[6-(3,5-dimethylisoxazol-4-yl)-1-[(1-fluorocyclohexyl)methyl]pyrrolo[3,2-b]pyridin-3-yl]-2-fluoro-benzoic acid], the IC50 in the assay on bromodomain was below 10 µM; with MV-4-11 cells, below 1 µM; on BRD4-BD12 (1-477) it was below 1 µM.

Regarding `Cc1noc(C)c1-c1cnc2c(-c3ccc(C(=O)O)cc3F)cn(CC3(F)CCCCC3)c2c1` [P-0468, 4-[6-(3,5-dimethylisoxazol-4-yl)-1-[(1-fluorocyclohexyl)methyl]pyrrolo[3,2-b]pyridin-3-yl]-3-fluoro-benzoic acid], the IC50 is below 10 µM with bromodomain, below 1 µM in the assay on MV-4-11 cells and below 1 µM at BRD4-BD12 (1-477).

Regarding `Cc1noc(C)c1-c1cnc2c(-c3ccc(C(=O)O)c(F)c3)cn(CC3(F)CCCCC3)c2c1` [P-0469, 4-[6-(3,5-dimethylisoxazol-4-yl)-1-[(1-fluorocyclohexyl)methyl]pyrrolo[3,2-b]pyridin-3-yl]-2-fluoro-benzoic acid], the figures for the IC50 in the assay with bromodomain, with MV-4-11 cells and on BRD4-BD12 (1-477) were below 10 µM, below 1 µM and below 1 µM, respectively.

Regarding `COc1ccc(-c2cn(CC3(F)CCCCC3)c3cc(-c4c(C)noc4C)cnc23)cn1` [P-0470, 4-[1-[(1-fluorocyclohexyl)methyl]-3-(6-methoxy-3-pyridyl)pyrrolo[3,2-b]pyridin-6-yl]-3,5-dimethyl-isoxazole], the IC50 with bromodomain was below 10 µM; in the assay with MV-4-11 cells, below 1 µM; at BRD4-BD12 (1-477), below 1 µM.

For `Cc1noc(C)c1-c1cnc2c(-c3ccc(=O)n(C)c3)cn(CC3(F)CCCCC3)c2c1` [P-0471, 5-[6-(3,5-dimethylisoxazol-4-yl)-1-[(1-fluorocyclohexyl)methyl]pyrrolo[3,2-b]pyridin-3-yl]-1-methyl-pyridin-2-one], the 50% inhibitory concentration (IC50) was below 10 µM with bromodomain, below 1 µM in the assay on MV-4-11 cells and below 1 µM on BRD4-BD12 (1-477).
